Results as given in patent US20150126464A1, “THERAPEUTIC DRUG AND THERAPEUTIC METHOD FOR NEUROLOGICAL DISEASES INCLUDING ALZHEIMER'S DISEASE ASSOCIATED WITH 1,25D3-MARRS” (priority 2013, published 2015).

Key:
5XFAD mice = test: Novel object recognition test in 5XFAD mice (Alzheimer's disease model); type: in vivo, mouse; settings: i.p. once a day for 20 days, diosgenin 10 μmol/kg, memantine hydrochloride 200 μmol/kg/day, 30 min training-test interval
Text: Transgenic mice (5XFAD) as an animal model of AD were obtained from the Jackson Laboratory (Bar Harbor, Me., USA). The 5XFAD mice overexpress human APP695 cDNA having Swedish mutation (K670N and M671L), Florida mutation (I716V) and London mutation (V717I) and human PS1 cDNA (M146L and L286V) under the transcriptional control of the neuron-specific mouse Thy-1 promoter (Oakley, H. et al., J Neurosci, 26, 10129-10140, 2006). They were maintained by crossing hemizygous transgenic mice with B6/SJL F1 breeders.
To investigate the effect of diosgenin on 5XFAD, hemizygous 5XFAD mice (female, 6 to 8 months old) and non-transgenic littermate wild-type mice (female, 6 to 8 months old) were used. These mice were obtained by crossing hemizygous 5XFAD mice and B6/SJL F1 mice. All mice were housed with free access to food and water and were kept in a controlled environment (22±2° C., 50±5% humidity, 12-h light/dark cycle starting at 7:00 am).
Diosgenin was dissolved in dimethyl sulfoxide (DMSO) at 10 times the final concentration to give a stock solution. The stock solution was diluted in physiological saline to the final concentration immediately before treatment. The diosgenin solution was intraperitoneally administered to 5XFAD mice once a day (10 μmol/kg=4.14 mg/kg) for 20 days. On the last day of administration (Day 20), each mouse was housed in a separate open-field box made of polyvinyl chloride (33 cm×[…]; height: 26.5 cm) and habituated to the environment for 10 min. […]
For each mouse of Example 1, Comparative Examples 1 and 2, and Reference Example 1, the path during the 10-minute habituation was tracked using a digital camera system. The distance each mouse traveled during the 10 minutes was analyzed as locomotion activity with EthoVision 3.0 (Noldus, Wageningen, The Netherlands). […] In the present invention, the ratio (%) of the exploration time for the novel object to the total exploration time was calculated as an exploration preferential index. […]

1,25D3-MARRS = target: T1, 1,25D3-MARRS (Rattus norvegicus, UniProt P11598); test: Detection of luminescence resulting from 1,25D3-MARRS binding (cell surface-binding DHVD3); settings: diosgenin 0.1 μM or 10 μM added with DHVD3 0.1 μM, 10 minutes
T1 construct: endogenous in cells; host or cells: primary cultured rat cortical neurons (SD, E17)
T1 sequence (P11598 25-505): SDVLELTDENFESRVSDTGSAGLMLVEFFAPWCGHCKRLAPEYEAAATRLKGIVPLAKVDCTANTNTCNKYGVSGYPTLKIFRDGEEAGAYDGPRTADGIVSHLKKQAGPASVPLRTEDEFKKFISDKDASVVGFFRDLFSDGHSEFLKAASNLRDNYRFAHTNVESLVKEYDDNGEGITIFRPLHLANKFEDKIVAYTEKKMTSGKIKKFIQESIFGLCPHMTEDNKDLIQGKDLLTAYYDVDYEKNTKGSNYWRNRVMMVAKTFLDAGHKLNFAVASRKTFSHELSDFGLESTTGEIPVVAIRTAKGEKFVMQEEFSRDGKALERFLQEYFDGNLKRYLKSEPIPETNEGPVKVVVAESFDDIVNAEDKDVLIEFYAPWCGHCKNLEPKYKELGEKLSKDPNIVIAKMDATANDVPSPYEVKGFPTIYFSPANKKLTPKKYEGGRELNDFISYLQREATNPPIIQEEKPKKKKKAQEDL
Text: Embryos were removed from pregnant Sprague-Dawley rats (Japan SLC, Shizuoka, Japan) at 17 days of gestation. The cortices were dissected, and the dura mater was removed.
Primary cultured cortical neurons (SD, E17) were harvested into a 96-well white plate at a density of 0.5×10^5 cells/well. […] Horse radish peroxidase-conjugated goat anti-mouse IgG (1:2000) was used as a secondary antibody. The chemiluminescence of the antigen-antibody complex was detected using a GENios multi-plate reader (Tecan, Mannedorf, Zurich, Switzerland).

immunochemiluminescence intensity of cell surface-bound DHVD3 (replacement of DHVD3) (1,25D3-MARRS): remarkably decreased
Structure (SMILES): C[C@@H]1CC[C@@]2(OC1)O[C@H]1C[C@H]3[C@@H]4CC=C5C[C@@H](O)CC[C@]5(C)[C@H]4CC[C@]3(C)[C@H]1[C@@H]2C [diosgenin]
novel object preferential index (exploration preferential index), test session (5XFAD mice): higher than 50%
